Experimental data: patent US20240099994A1, “LONG-ACTING INJECTABLE FORMULATIONS OF KETAMINE PAMOATE SALTS” (ALAR PHARMACEUTICAL INC., priority 2019, published 2024)
Where a name gives a salt, the structure may show the parent alone. Read-outs that look alike come from different tables or passages of the source.

Experiments:
ICR mice = experiment: Sedation behavior by rodent sedation rating scale; type: in vivo; settings: SC, 120 mg/kg ketamine free-base; for Sedation behavior (rodent sedation rating scale): immediately post administration to 28 days
Procedure: (§1) FIG. 43 is a diagram illustrating the protocol of dexamethasone (DEX)-induced depression-like animal model to evaluate the antidepressant effects of ketamine HCl (KET), R, S-ketamine pamoate salt (KEP), S-ketamine pamoate salt (S-KEP), and R-ketamine pamoate salt (R-KEP). ICR mice were intraperitoneally injected with saline or DEX at postnatal day 1 to 3 (P1 to P3) with dose decrement of 0.5 mg/kg, 0.3 mg/kg, and 0.1 mg/kg, respectively. The drugs for each group or saline group were administered subcutaneously at day 35 (P35, i.e., dosing day 0, D0), and the forced swimming test (FST) were conducted every 10 days from dosing day 1 (D1, P36) to P98. Evaluation of sedation behavior was also conducted by sedation rating scale from the time immediately post injection to dosing day 28 after drug administration.
Furthermore, sedation behavior was also evaluated by rodent sedation rating scale (Table 28) immediately post drug administration to 28 days in this study.

[1] = Intrinsic dissolution rate, rotating disk method (USP Chapter 1087); type: physicochemical; settings: for Intrinsic dissolution rate: 50 rpm, average of three samples; for BCS solubility classification: pH 7.4 medium
Procedure: The intrinsic dissolution rate of the crystal and amorphous forms of ketamine pamoate salts was determined by using the intrinsic dissolution rotating disk method described in Chapter 1087 of the U.S. Pharmacopeia under the conditions of medium pH as 1.2, 4.5, 6.8 or 7.4, medium volume as 900 mL, rotating speed as 50 rpm, medium temperature as 37° C., and detection wavelength as 210 nm. The results were shown in Tables 7 and 8 and FIGS. 27 to 29.

[2] = test system: DEX-induced depression-like animal model; experiment: Forced swimming test (FST) in dexamethasone (DEX)-induced depression-like animal model; type: in vivo, ICR mice; settings: DEX-treated mice, SC, 120 mg/kg ketamine free-base; for Immobility time on FST: 1 day after administration
Procedure: as §1
Depression-like animal model induced by dexamethasone (hereinafter abbreviated as DEX) was used to evaluate the antidepressant effects of ketamine HCl (KET), R, S-ketamine pamoate salt (KEP), S-ketamine pamoate salt (S-KEP), and R-ketamine pamoate salt (R-KEP) at equivalent dose (120 mg/kg ketamine free-base). According to literature, depressive-like behaviors were observed on juvenile mice and adult mice which neonatally exposed to DEX. Protocol of this example was shown in FIG. 43 and described in detail below.
Neonatal ICR mice were intraperitoneally injected with saline or DEX on postnatal day 1, 2, and 3 (P1 to P3) at doses of 0.5 mg/kg, 0.3 mg/kg, and 0.1 mg/kg, respectively. The mice received saline were called as Control group, and the mice received DEX were divided into the groups of KET, KEP, S-KEP, R-KEP and Saline (n=10 to 14 mice in each group). The mice of KET, KEP, S-KEP, and R-KEP groups were subcutaneously injected with KET formulation, the formulation AS04 comprising KEP, the formulation AS06 comprising S-KEP, and the formulation AS07 comprising R-KEP at postnatal day 35, respectively. The KET formulation was 20% (w/w) ketamine HCl dissolved in 0.9% saline. The formulations AS04, AS06 and AS07 were prepared in Example 18. Saline group mice were subcutaneously injected with equal volumes of 0.9% saline.
Antidepressant effects were evaluated by forced swimming test (FST), which performed about every 10 days from the first day (P36) to the 63rd day (P98) after drug administration. All groups of mice were trained for swimming before drug administration. During the FST, mice were individually placed into 5 L glass cylinders (height 27 cm, diameter 18 cm) filled with 4 L of water (23±1° C.). The total duration of immobility time during 5 minutes of FST was observed. Results were presented as mean±SEM. Student's t-test was analyzed with the Saline group (DEX-treated mouse group injected with saline) versus the other groups at each time point. *p<0.05, **p<0.01, ***p<0.001, and ****p<0.0001 indicate significant differences compared to the Saline group.

[3] = in water; cited from earlier work
[4] = Solubility test (USP guidance) in different pH media
[5] = pH 4.5, 1% polysorbate 20 in medium, 37° C.
[6] = pH 6.8, 1% polysorbate 20 in medium, 37° C.
[7] = pH 7.4, 1% polysorbate 20 in medium, 37° C.

CNC1(c2ccccc2Cl)CCCCC1=O (stereo not drawn) [R,S-ketamine HCl, R, S-ketamine hydrochloride, reference compound]
Time to full recovery from sedation-related behavior post administration (ICR mice): 2 h | Sedation behavior (rodent sedation rating scale) (ICR mice): mild sedation-related behavior | Intrinsic dissolution rate ([1]; pH 1.2, 37° C.): 5.329 mg/min/cm^2 | Intrinsic dissolution rate [1, 5]: 3.729 mg/min/cm^2 | Intrinsic dissolution rate [1, 6]: 2.918 mg/min/cm^2 | Intrinsic dissolution rate [1, 7]: 1.740 mg/min/cm^2 | Antidepressant effects on FST after single injection [2]: rapid-onset antidepressant effects | Immobility time on FST [2]: reduced the immobility time | Solubility [3]: > 200000 µg/mL

CN[C@]1(c2ccccc2Cl)CCCCC1=O [S-ketamine pamoate salt (Amorphous, ratio 2:1)]
Solubility ([4]; pH 1.2 medium, listed as S-ketamine pamoate salt (Ratio 2:1) Amorphous): 1000 µg/mL | Solubility ([4]; pH 4.5 medium, listed as S-ketamine pamoate salt (Ratio 2:1) Amorphous): 840 µg/mL | Solubility ([4]; pH 6.8 medium, listed as S-ketamine pamoate salt (Ratio 2:1) Amorphous): 480 µg/mL | Solubility ([4]; pH 7.4 medium, listed as S-ketamine pamoate salt (Ratio 2:1) Amorphous): 580 µg/mL | Intrinsic dissolution rate [1, 7]: 0.026 mg/min/cm^2 | BCS solubility classification [1]: Low

CN[C@]1(c2ccccc2Cl)CCCCC1=O.Cl [S-ketamine HCl, S-ketamine hydrochloride, reference compound]
Intrinsic dissolution rate [1, 7]: 2.248 mg/min/cm^2 | BCS solubility classification [1]: High

CN[C@@]1(c2ccccc2Cl)CCCCC1=O [R-ketamine pamoate salt (Amorphous, ratio 2:1)]
Solubility ([4]; pH 1.2 medium, listed as R-ketamine pamoate salt (Ratio 2:1) Amorphous): 1150 µg/mL | Solubility ([4]; pH 4.5 medium, listed as R-ketamine pamoate salt (Ratio 2:1) Amorphous): 990 µg/mL | Solubility ([4]; pH 6.8 medium, listed as R-ketamine pamoate salt (Ratio 2:1) Amorphous): 640 µg/mL | Solubility ([4]; pH 7.4 medium, listed as R-ketamine pamoate salt (Ratio 2:1) Amorphous): 950 µg/mL | Intrinsic dissolution rate [1, 7]: 0.021 mg/min/cm^2 | BCS solubility classification [1]: Low

CNC1(c2ccccc2Cl)CCCCC1=O.CNC1(c2ccccc2Cl)CCCCC1=O.O=C(O)c1cc2ccccc2c(Cc2c(O)c(C(=O)O)cc3ccccc23)c1O [R,S-ketamine pamoate salt (Crystal, ratio 2:1)] [R, S-ketamine pamoate salt]
Sedation or other ketamine-related psychotomimetic effects and nervous system disorders post administration (ICR mice): would not occur | Sedation behavior (rodent sedation rating scale) (ICR mice): normal behavior | Solubility ([4]; pH 1.2 medium, listed as R, S-ketamine pamoate salt): 1680 µg/mL | Solubility ([4]; pH 4.5 medium, listed as R,S-ketamine pamoate salt (Ratio 2:1) Crystal): 1080 µg/mL | Solubility ([4]; pH 6.8 medium): 160 µg/mL | Solubility ([4]; pH 7.4 medium, listed as R,S-ketamine pamoate salt (Ratio 2:1) Crystal): 220 µg/mL | Intrinsic dissolution rate ([1]; pH 1.2, 37° C.): 0.095 mg/min/cm^2 | Intrinsic dissolution rate [1, 5]: 0.005 mg/min/cm^2 | Intrinsic dissolution rate [1, 6]: 0.011 mg/min/cm^2 | Intrinsic dissolution rate [1, 7]: 0.012 mg/min/cm^2 | Antidepressant effects on FST after single injection [2]: rapid-onset antidepressant effects | Immobility time on FST [2]: reduced the immobility time

CNC1(c2ccccc2Cl)CCCCC1=O.CNC1(c2ccccc2Cl)CCCCC1=O.O=C(O)c1cc2ccccc2c(Cc2c(O)c(C(=O)O)cc3ccccc23)c1O [R,S-ketamine pamoate salt (Amorphous, ratio 2:1)] [R, S-ketamine pamoate salt]
Solubility ([4]; pH 1.2 medium, listed as R,S-ketamine pamoate salt (Ratio 2:1) Amorphous): 1310 µg/mL | Solubility ([4]; pH 4.5 medium, listed as R,S-ketamine pamoate salt (Ratio 2:1) Amorphous): 870 µg/mL | Solubility ([4]; pH 6.8 medium): 160 µg/mL | Solubility ([4]; pH 7.4 medium, listed as R,S-ketamine pamoate salt (Ratio 2:1) Amorphous): 180 µg/mL | Intrinsic dissolution rate [1, 7]: 0.024 mg/min/cm^2 | BCS solubility classification [1]: Low

CN[C@]1(c2ccccc2Cl)CCCCC1=O [S-ketamine pamoate salt (Crystal, ratio 2:1)]
Sedation or other ketamine-related psychotomimetic effects and nervous system disorders post administration (ICR mice): would not occur | Solubility ([4]; pH 1.2 medium, listed as S-ketamine pamoate salt (Ratio 2:1) Crystal): 1240 µg/mL | Solubility ([4]; pH 4.5 medium, listed as S-ketamine pamoate salt (Ratio 2:1) Crystal): 1610 µg/mL | Solubility ([4]; pH 6.8 medium, listed as S-ketamine pamoate salt (Ratio 2:1) Crystal): 390 µg/mL | Solubility ([4]; pH 7.4 medium, listed as S-ketamine pamoate salt (Ratio 2:1) Crystal): 500 µg/mL | Intrinsic dissolution rate [1, 7]: 0.027 mg/min/cm^2 | BCS solubility classification [1]: Low | Antidepressant effects on FST after single injection [2]: rapid-onset antidepressant effects

CNC1(c2ccccc2Cl)CCCCC1=O.Cl (stereo not drawn) [R-ketamine HCl, R-ketamine hydrochloride, reference compound]
Intrinsic dissolution rate [1, 7]: 2.356 mg/min/cm^2 | BCS solubility classification [1]: High

CNC1(c2ccccc2Cl)CCCCC1=O.O=C(O)c1cc2ccccc2c(Cc2c(O)c(C(=O)O)cc3ccccc23)c1O [R- or S-ketamine pamoate salt]
Solubility ([4]; pH 1.2 medium): 720 µg/mL | Solubility ([4]; pH 4.5 medium): 450 µg/mL | Solubility ([4]; pH 6.8 medium): 70 µg/mL | Solubility ([4]; pH 7.4 medium): 80 µg/mL

CN[C@@]1(c2ccccc2Cl)CCCCC1=O [R-ketamine pamoate salt (Crystal, ratio 2:1)]
Sedation or other ketamine-related psychotomimetic effects and nervous system disorders post administration (ICR mice): would not occur | Solubility ([4]; pH 1.2 medium, listed as R-ketamine pamoate salt (Ratio 2:1) Crystal): 1090 µg/mL | Solubility ([4]; pH 4.5 medium, listed as R-ketamine pamoate salt (Ratio 2:1) Crystal): 1180 µg/mL | Solubility ([4]; pH 6.8 medium, listed as R-ketamine pamoate salt (Ratio 2:1) Crystal): 400 µg/mL | Solubility ([4]; pH 7.4 medium, listed as R-ketamine pamoate salt (Ratio 2:1) Crystal): 510 µg/mL | Intrinsic dissolution rate [1, 7]: 0.025 mg/min/cm^2 | BCS solubility classification [1]: Low | Antidepressant effects on FST after single injection [2]: rapid-onset antidepressant effects
